Experimental data reported in patent publication US20030100590A1, “3-(4,5-dihydroisoxazol-5-yl)benzoylpyrazole” (priority 1999, published 2003).

What was measured:
[1] = tested on: Avena fatua, Bromus inermis, Matricaria chamomilla, Matricaria inodora; experiment: greenhouse post-emergence herbicidal test, harmful plants; type: in vivo; settings: application rate 125 or 62.5 g/ha a.s., 2 to 4 weeks
Experimental: (§1) The seeds of the test plants were sown separately for each species. For the post-emergence treatment, the test plants were grown to a plant height of from 3 to 15 cm, depending on the plant habit, and only then treated with the active ingredients which had been suspended or emulsified in water. To this end, the test plants were either sown directly and grown in the same containers, or they were first grown separately as seedlings and transplanted into the test containers a few days prior to treatment. The rate of application for the post-emergence treatment was 125 or 62.5 g/ha a.s. (active substance). Depending on the species, the plants were kept at from 10 to 25° C. and 20 to 35° C., respectively. The test period extended over 2 to 4 weeks. During this time, the plants were tended, and their response to the individual treatments was evaluated. Evaluation was carried out using a scale of from 0 to 100. 100 means no emergence of the plants, or complete destruction of at least the aerial parts, and 0 means no damage or normal course of growth. The plants used in the greenhouse experiments belonged to the following species: [table]

spring wheat = experiment: greenhouse post-emergence test, crop plant compatibility; type: in vivo, Tritricum aestivum; settings: application rate 125 or 62.5 g/ha a.s., 2 to 4 weeks
Experimental: as §1

SMILES | herbicidal activity against the abovementioned harmful plants [1] | compatibility with / damage in the crop plant spring wheat (spring wheat) | melting point [°C]
Cc1cc(-c2c(S(C)(=O)=O)ccc(C(=O)c3cnn(C)c3O)c2C)on1 [A] | weaker herbicidal activity | caused damage | 
CC1=NOC(c2c(S(C)(=O)=O)ccc(C(=O)c3cnn(C)c3O)c2Cl)C1 (stereo not shown) [Compound 2.8, 4-[2-Chloro-3-(3-methyl-4,5-dihydroisoxazol-5-yl)-4-methyl-sulfonylbenzoyl]-5-hydroxy-1-methyl-1H-pyrazole] |  |  | > 215
CC1=NOC(c2c(S(C)(=O)=O)ccc(C(=O)c3cnn(C4CC4)c3O)c2Cl)C1 (stereo not shown) [Compound 2.36, 4-[2-Chloro-3-(3-methyl-4 , 5-dihydroisoxazol-5-yl)-4-methyl-sulfonylbenzoyl]-5-hydroxy-1-cyclopropyl-1H-pyrazole] |  |  | > 220
